Laboratory results published in patent publication EP1433789A1, “Pyrrolopyrazines and their use as selective apoptosis inducers” (Aponetics AG, priority 2002, dated 2004).

Legend:
A20 [1] = assay: AnnexinV/7-AAD staining; type: cell-based, mouse; conditions: A20, 10 µM, 24 h treatment
Summary of the method: (§1)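 Cells treated with compound at 10 µM final for 24 h, then stained with AnnexinV-GST/anti-GST Alexa 488 and 7-AAD and analysed by flow cytometry. Percent positive cells scored as 0 (<10%), 1 (10–50%) or 2 (>50%).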

HeLa [2] = assay: AnnexinV/7-AAD staining; type: cell-based, human; conditions: 10 µM, 24 h treatment
Summary of the method: as §1

Jurkat [3] = assay: AnnexinV/7-AAD staining; type: cell-based, human; conditions: 10 µM, 24 h treatment
Summary of the method: as §1

Ramos = assay: AnnexinV/7-AAD staining; type: cell-based, human; conditions: 10 µM, 24 h treatment
Summary of the method: as §1

Jurkat [4] = assay: Hoechst 33342 nuclear staining (Table 3); type: cell-based, human; parameters: key: 0 relating to no activity; 1 relating to weak activity comprising less than 50% of the cells; score 2 relating to strong activity comprising more than 50% of the cells
Summary of the method: (§2)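 Adherent cells (3-5×10^3, pre-spread 24 h) or suspension cells (8-10×10^3) treated with compounds at 10, 3, 1 and 0.3 µM for 24 or 48 h, then Hoechst 33342 stained for 30 min. Apoptotic nuclear morphology scored by fluorescence microscopy: 0 none, 1 weak (<50% cells), 2 strong (>50% cells).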

KB = assay: Hoechst 33342 nuclear staining (Table 3); type: cell-based, human; parameters: key: 0 relating to no activity; 1 relating to weak activity comprising less than 50% of the cells; score 2 relating to strong activity comprising more than 50% of the cells
Summary of the method: as §2

HeLa [5] = assay: MTS proliferation assay; type: cell-based; conditions: Homo sapiens, 72 h incubation
Method: (§3) The assay is performed in 96 well tissue culture plates. The cells (range : 1.5*10^3-10^4) are seeded out in 80 µl complete medium 24 h prior to compound treatment. The test compounds are added in 20 µl complete medium containing max 5% DMSO. The final compound concentrations in the assays are 10 µM, 3 µM,1 µM and 0.3 µM, respectively. The assay plates are incubated for 72 h at culture conditions. The MTS reagent is prepared according to the manufacturer's protocol (Promega G1111 ). 20 µl MTS reagent are added to each well, the assay plates are quickly spun and incubated for another 3 h at culture conditions. Subsequently, the plates are shortly shaked and absorption measured with a microplate-reader at 492 nm.

K562 = assay: MTS proliferation assay; type: cell-based; conditions: Homo sapiens, K562, 72 h incubation
Method: as §3

Jurkat [6] = assay: MTS proliferation assay; type: cell-based; conditions: Homo sapiens, 72 h incubation
Method: as §3

HeLa [7] = assay: BrdU incorporation (proliferation); type: cell-based, human; parameters: key: 0 for no activity; 1 for a moderate inhibition; 2 for strong inhibition of proliferation; conditions: 48 h
Method: (§4) Adherent cells are seeded out at 2 - 4*10^4 cells/well/ml in 24 well tissue culture plates 24 h prior to treatment. Suspension cells are seeded out at 2*10^5 cells/ml/well in 24 well plates. Compounds are added leading to final concentrations of 3 µM and 10 µM, respectively. Subsequently, BrdU (Molecular Probes #B-23151) at 10 µM final concentration is added and the plates are incubated for 48 h. After the incubation cells are processed according to standard procedures. The detection of the incorporated BrdU is done with the anti-bromodeoxyuridine Mab PRB-1, Alexa Fluor 660 conjugate (Molecular Probes #A-21306). The analysis is performed on a FACSCalibur™ by monitoring the fluorescence activity on FL3. The readout reflects DNA synthesis which is a hallmark for proliferation. The scores are defined the following: 0 for no activity, 1 for a moderate inhibition and 2 for strong inhibition of proliferation. Table 7 indicates inhibitory activities of several tested compounds on proliferation.

Jurkat [8] = assay: BrdU incorporation (proliferation); type: cell-based, human; parameters: key: 0 for no activity; 1 for a moderate inhibition; 2 for strong inhibition of proliferation; conditions: 48 h
Method: as §4

A20 [9] = assay: Hoechst 33342 nuclear staining (Table 3); type: cell-based, mouse; parameters: key: 0 relating to no activity; 1 relating to weak activity comprising less than 50% of the cells; score 2 relating to strong activity comprising more than 50% of the cells
Method: This assay is performed in 96 well tissue culture plates. Appropriate number of cells (adherent cells: 3 - 5*10^3, suspension cells: 8 - 10*10^3) are being seeded out in 80 µl complete medium. Adherent cells are incubated for 24 h for proper spreading out before addition of test compounds while suspension cells are immediately treated with test compounds after seeding out. The test compounds are added in 20 µl complete medium containing max 5% DMSO. The final compound concentrations in the assays are 10 µM, 3 µM,1 µM and 0.3 µM, respectively. After 24 h or 48 h incubation at culture conditions, 10 µl medium containing Hoechst 33342 dye (Sigma B-2261) at 2-5 µg/ml are added to each well. The assay plates are then further incubated for 30 minutes and subsequently analyzed with a standard inverted fluorescence microscope. The readout allows the determination of the fraction of apoptotic nuclei as well as other morphological criteria specific for apoptosis as a function of the treatment. The following scores are used: 0 relating to no activity, 1 relating to weak activity comprising less than 50% of the cells and score 2 relating to strong activity comprising more than 50% of the cells.

SMILES	percentage of positively stained cells (AnnexinV/7-AAD staining) (A20 [1])	percentage of positively stained cells (AnnexinV/7-AAD staining) (HeLa [2])	percentage of positively stained cells (AnnexinV/7-AAD staining) (Jurkat [3])	percentage of positively stained cells (AnnexinV/7-AAD staining) (Ramos)	Hoechst 33342 nuclear staining (Jurkat [4]; 24h, conc 0.3 (µM))	Hoechst 33342 nuclear staining (Jurkat [4]; 24h, conc 1 (µM))	Hoechst 33342 nuclear staining (Jurkat [4]; 24h, conc 3 (µM))	Hoechst 33342 nuclear staining (Jurkat [4]; 24h, conc 10 (µM))	Hoechst 33342 nuclear staining (Jurkat [4]; 48h, conc 0.3 (µM))	Hoechst 33342 nuclear staining (Jurkat [4]; 48h, conc 1 (µM))	Hoechst 33342 nuclear staining (Jurkat [4]; 48h, conc 3 (µM))	Hoechst 33342 nuclear staining (Jurkat [4]; 48h, conc 10 (µM))	Hoechst 33342 nuclear staining (KB; 24h, conc 0.3 (µM))	Hoechst 33342 nuclear staining (KB; 24h, conc 1 (µM))	Hoechst 33342 nuclear staining (KB; 24h, conc 3 (µM))	Hoechst 33342 nuclear staining (KB; 24h, conc 10 (µM))	Hoechst 33342 nuclear staining (KB; 48h, conc 0.3 (µM))	Hoechst 33342 nuclear staining (KB; 48h, conc 1 (µM))	Hoechst 33342 nuclear staining (KB; 48h, conc 3 (µM))	Hoechst 33342 nuclear staining (KB; 48h, conc 10 (µM))	further results
CC1(C)Cc2ccccc2-c2c(Br)c3nc4ccccc4nc3n21 [No. 2, 13-Bromo-6,6-dimethyl-5,6-dihydro-6a,7,12-triaza-dibenzo[a,h]fluorene]	2 (score 2 relates to more than 50% positivity)	1 (score 1 relates to more than 10% but less than 50%)	2 (score 2 relates to more than 50% positivity)	2 (score 2 relates to more than 50% positivity)	1 (1 relating to weak activity comprising less than 50% of the cells)	1 (1 relating to weak activity comprising less than 50% of the cells)	2 (score 2 relating to strong activity comprising more than 50% of the cells)	2 (score 2 relating to strong activity comprising more than 50% of the cells)	2 (score 2 relating to strong activity comprising more than 50% of the cells)	2 (score 2 relating to strong activity comprising more than 50% of the cells)	2 (score 2 relating to strong activity comprising more than 50% of the cells)	2 (score 2 relating to strong activity comprising more than 50% of the cells)	0	0	0	0	0	0	0	0	–
COc1cc2c(cc1OC)-c1c(Br)c3nc4ccccc4nc3n1C(C)C2 (stereo not drawn) [compound 10]	1 (score 1 relates to more than 10% but less than 50%)	2 (score 2 relates to more than 50% positivity)	2 (score 2 relates to more than 50% positivity)	2 (score 2 relates to more than 50% positivity)	1 (1 relating to weak activity comprising less than 50% of the cells)	2 (score 2 relating to strong activity comprising more than 50% of the cells)	2 (score 2 relating to strong activity comprising more than 50% of the cells)	2 (score 2 relating to strong activity comprising more than 50% of the cells)	1 (1 relating to weak activity comprising less than 50% of the cells)	2 (score 2 relating to strong activity comprising more than 50% of the cells)	2 (score 2 relating to strong activity comprising more than 50% of the cells)	2 (score 2 relating to strong activity comprising more than 50% of the cells)	0	0	2 (score 2 relating to strong activity comprising more than 50% of the cells)	2 (score 2 relating to strong activity comprising more than 50% of the cells)	0	2 (score 2 relating to strong activity comprising more than 50% of the cells)	2 (score 2 relating to strong activity comprising more than 50% of the cells)	2 (score 2 relating to strong activity comprising more than 50% of the cells)	IC50 (HeLa [5]): 1 to 10 µM; IC50 (K562): > 10 µM; IC50 (Jurkat [6]): > 10 µM; BrdU incorporation (inhibition of proliferation) (HeLa [7]; 3uM): 0; BrdU incorporation (inhibition of proliferation) (HeLa [7]; 10uM): 0; BrdU incorporation (inhibition of proliferation) (Jurkat [8]; 3uM): 2; BrdU incorporation (inhibition of proliferation) (Jurkat [8]; 10uM): 1; Hoechst 33342 nuclear staining (A20 [9]; A20, 24h, conc 0.3 (µM)): 0; Hoechst 33342 nuclear staining (A20 [9]; A20, 24h, conc 1 (µM)): 0; Hoechst 33342 nuclear staining (A20 [9]; A20, 24h, conc 3 (µM)): 0; Hoechst 33342 nuclear staining (A20 [9]; A20, 24h, conc 10 (µM)): 2 (score 2 relating to strong activity comprising more than 50% of the cells); Hoechst 33342 nuclear staining (A20 [9]; A20, 48h, conc 0.3 (µM)): 0; Hoechst 33342 nuclear staining (A20 [9]; A20, 48h, conc 1 (µM)): 0; Hoechst 33342 nuclear staining (A20 [9]; A20, 48h, conc 3 (µM)): 2 (score 2 relating to strong activity comprising more than 50% of the cells)
CC1Cc2ccccc2-c2c(Cl)c3nc4ccccc4nc3n21 (stereo not drawn) [compound 11]	1 (score 1 relates to more than 10% but less than 50%)	1 (score 1 relates to more than 10% but less than 50%)	0 (Score 0 relates to less than 10%)	2 (score 2 relates to more than 50% positivity)	0	0	2 (score 2 relating to strong activity comprising more than 50% of the cells)	2 (score 2 relating to strong activity comprising more than 50% of the cells)	1 (1 relating to weak activity comprising less than 50% of the cells)	2 (score 2 relating to strong activity comprising more than 50% of the cells)	2 (score 2 relating to strong activity comprising more than 50% of the cells)	2 (score 2 relating to strong activity comprising more than 50% of the cells)	0	0	0	0	0	0	1 (1 relating to weak activity comprising less than 50% of the cells)	2 (score 2 relating to strong activity comprising more than 50% of the cells)	IC50 (HeLa [5]): > 10 µM; IC50 (K562): > 10 µM; IC50 (Jurkat [6]): > 10 µM; BrdU incorporation (inhibition of proliferation) (HeLa [7]; 3uM): 1; BrdU incorporation (inhibition of proliferation) (Jurkat [8]; 3uM): 0; BrdU incorporation (inhibition of proliferation) (Jurkat [8]; 10uM): 2; Hoechst 33342 nuclear staining (A20 [9]; A20, 24h, conc 1 (µM)): 0; Hoechst 33342 nuclear staining (A20 [9]; A20, 24h, conc 3 (µM)): 0; Hoechst 33342 nuclear staining (A20 [9]; A20, 24h, conc 10 (µM)): 0; Hoechst 33342 nuclear staining (A20 [9]; A20, 48h, conc 0.3 (µM)): 0; Hoechst 33342 nuclear staining (A20 [9]; A20, 48h, conc 1 (µM)): 0; Hoechst 33342 nuclear staining (A20 [9]; A20, 48h, conc 3 (µM)): 0; Hoechst 33342 nuclear staining (A20 [9]; A20, 48h, conc 10 (µM)): 2 (score 2 relating to strong activity comprising more than 50% of the cells)
